From EP3436445B1, “HISTONE DEMETHYLASE INHIBITORS” (Celgene Quanticel Research, Inc., priority 2016, dated 2017) come the findings set out here.

This test concerns the target T1, FBXL10 (Homo sapiens, UniProt Q8NHM5).
T1 construct: purchased BPS Bioscience 50120
T1 sequence (Q8NHM5 1-650): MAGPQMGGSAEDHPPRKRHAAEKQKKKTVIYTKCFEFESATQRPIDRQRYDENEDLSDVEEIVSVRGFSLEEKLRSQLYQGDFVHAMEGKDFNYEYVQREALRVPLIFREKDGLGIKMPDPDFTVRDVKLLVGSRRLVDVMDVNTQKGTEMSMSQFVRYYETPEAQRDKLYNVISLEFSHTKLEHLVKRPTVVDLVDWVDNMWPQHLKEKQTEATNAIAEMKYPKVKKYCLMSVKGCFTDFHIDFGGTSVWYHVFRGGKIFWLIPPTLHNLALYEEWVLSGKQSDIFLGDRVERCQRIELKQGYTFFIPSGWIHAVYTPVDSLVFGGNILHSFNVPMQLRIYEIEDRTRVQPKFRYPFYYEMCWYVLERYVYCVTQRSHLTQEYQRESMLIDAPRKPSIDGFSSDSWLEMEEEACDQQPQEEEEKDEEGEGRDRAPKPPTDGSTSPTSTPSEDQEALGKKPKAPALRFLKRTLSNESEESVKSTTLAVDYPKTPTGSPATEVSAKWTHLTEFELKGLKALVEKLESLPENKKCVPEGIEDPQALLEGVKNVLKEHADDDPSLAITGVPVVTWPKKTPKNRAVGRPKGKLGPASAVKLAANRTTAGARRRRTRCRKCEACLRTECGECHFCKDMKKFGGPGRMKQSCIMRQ
Put plainly: FBXL10 in vitro enzyme inhibition assay (AlphaScreen). The class given is biochemical. The following applies: Table 5. An excerpt: This assay determines the ability of a test compound to inhibit FBXL11, FBXL10, and PHF8 demethylase activity. Baculovirus expressed FBXL11 (GenBank Accession #NM_012308, AA1-1162) was purchased from BPS Bioscience (Cat#50102). Baculovirus expressed FBXL10 (GenBank Accession #NM_032590, AA 1-650) was purchased from BPS Bioscience (Cat #50120). Baculovirus expressed PHF8 (GenBank Accession NP_055922.1) was purchased from Active Motif (Cat#31435).
The ability of test compounds to inhibit the activity of FBXL10 was determined in 384-well plate format under the following reaction conditions: 0.3 nM FBXL10, 30 nM H3K36me2-biotin labeled peptide (Anaspec cat # 64442), 0.2 µM alpha-ketoglutaric acid in assay buffer of 50 mM HEPES, pH7.3, 0.005% Brij35, 0.5 mM TCEP, 0.2 mg/ml BSA, 50 µM sodium L-ascorbate, 5 µM ammonium iron(II) sulfate. Reaction product is determined quantitatively by AlphaScreen detection after the addition of detection reagents anti-H3K36me1 antibody, AlphaScreen® Streptavidin-coated Donor beads, and AlphaScreen® Protein A Acceptor beads in 50 mM HEPES, pH7.3, 10 mM NaCl, 0.005% Brij35, 5 mM EDTA, 2 mg/ml BSA to final 10 µg/ml beads.
The assay reaction was initiated by the following: 3 µl of the mixture of 90 nM H3K36me2-biotin labeled peptide and 0.6 µM alpha-ketoglutaric acid with 3 µl of 11-point serial diluted inhibitor in 3% DMSO are added to each well of 384 well Proxiplate (Perkin Elmer), followed by the addition of 3 µl of 0.9 nM FBXL10 to initiate the reaction. The reaction mixture is incubated at room temperature for 1 hour, and terminated by the addition of 3 µl of appropriate dilution of anti H3K36me1 antibody in 50 mM HEPES, pH7.3, 10 mM NaCl, 0.005% Brij35, 5 mM EDTA, 2 mg/ml BSA. Plates will then incubated at room temperature for 40 minutes, followed by addition of 3 µl of 50 µg/ml AlphaScreen® Streptavidin-coated Donor beads and AlphaScreen® Protein A Acceptor beads in 50 mM HEPES, pH7.3, 10 mM NaCl, 0.005% Brij35, 5 mM EDTA, 2 mg/ml BSA. Plates will then be read by EnVision Multilabel Reader in AlphaScreen mode after minimum 2 hour incubation at room temperature. The AlphaScreen signal for each well is used to determine inhibition constant (IC50).
For orientation: Bead proximity is the source of the signal in Alpha formats.

Where only a bound is given, the exact number is not on record here.

For `Fc1ccc(CCn2cnc(-c3cc(-c4nn[nH]c4C(F)(F)F)ccn3)c2)cc1` [Example 77], the IC50 is at most 100 nM.
Turning to `Fc1cccc(CCn2cnc(-c3cc(-c4nn[nH]c4C(F)(F)F)ccn3)c2)c1` [Example 78, 2-{1-[2-(3-fluorophenyl)ethyl]-1H-imidazol-4-yl}-4-[5-(trifluoromethyl)-1H-1,2,3-triazol-4-yl]pyridine], the IC50 was at most 100 nM.
In the case of `Fc1cccc(CCn2cnc(-c3cc(-c4nn[nH]c4C(F)(F)F)ccn3)c2)c1F` [Example 79, 2-{1-[2-(2,3-difluorophenyl)ethyl]-1H-imidazol-4-yl}-4-[5-(trifluoromethyl)-1H-1,2,3-triazol-4-yl]pyridine] it was at most 100 nM; in that of `Fc1cccc(Cl)c1CCn1cnc(-c2cc(-c3nn[nH]c3C(F)(F)F)ccn2)c1` [Example 80, 2-{1-[2-(2-chloro-6-fluorophenyl)ethyl]-1H-imidazol-4-yl}-4-[5-(trifluoromethyl)-1H-1,2,3-triazol-4-yl]pyridine], 100 to 1000 nM.
In the case of `Fc1cc(F)c(CCn2cnc(-c3cc(-c4nn[nH]c4C(F)(F)F)ccn3)c2)cc1F` [Example 81, 4-[5-(trifluoromethyl)-1H-1,2,3-triazol-4-yl]-2-{1-[2-(2,4,5-trifluorophenyl)ethyl]-1H-imidazol-4-yl}pyridine] it was at most 100 nM.
In the case of `Fc1cc(F)c(CCn2cnc(-c3cc(-c4nn[nH]c4C(F)(F)F)ccn3)c2)c(F)c1` [Example 82, 4-[5-(trifluoromethyl)-1H-1,2,3-triazol-4-yl]-2-{1-[2-(2,4,6-trifluorophenyl)ethyl]-1H-imidazol-4-yl}pyridine] it was at most 100 nM; in that of `FC(F)(F)c1[nH]nnc1-c1ccnc(-c2cn(CC3CCc4ccccc43)cn2)c1` (stereo not drawn) [Example 83, 2-{1-[(2,3-dihydro-1H-inden-1-yl)methyl]-1H-imidazol-4-yl}-4-[5-(trifluoromethyl)-1H-1,2,3-triazol-4-yl]pyridine], 100 to 1000 nM; in that of `Fc1ccccc1CCn1cnc(-c2cc(-c3nn[nH]c3C(F)(F)F)ccn2)c1` [Example 84, 2-{1-[2-(2-fluorophenyl)ethyl]-1H-imidazol-4-yl}-4-[5-(trifluoromethyl)-1H-1,2,3-triazol-4-yl]pyridine], at most 100 nM.
On to `Fc1ccc2c(c1)C(n1cnc(-c3cc(-c4nn[nH]c4C(F)(F)F)ccn3)c1)CC2` (stereo not drawn) [Example 85, 2-[1-(6-fluoro-2,3-dihydro-1H-inden-1-yl)-1H-imidazol-4-yl]-4-[5-(trifluoromethyl)-1H-1,2,3-triazol-4-yl]pyridine], for which the IC50 was at most 100 nM.
`Fc1ccc(CCn2cnc(-c3cc(-c4nn[nH]c4C(F)(F)F)ccn3)c2)c(F)c1` [Example 86, 2-{1-[2-(2,4-difluorophenyl)ethyl]-1H-imidazol-4-yl}-4-[5-(trifluoromethyl)-1H-1,2,3-triazol-4-yl]pyridine] registered an IC50 of at most 100 nM.
In the case of `Fc1cccc(F)c1CCn1cnc(-c2cc(-c3nn[nH]c3C(F)(F)F)ccn2)c1` [Example 87, 2-{1-[2-(2,6-difluorophenyl)ethyl]-1H-imidazol-4-yl}-4-[5-(trifluoromethyl)-1H-1,2,3-triazol-4-yl]pyridine] it was at most 100 nM; in that of `Fc1ccc(F)c(CCn2cnc(-c3cc(-c4nn[nH]c4C(F)(F)F)ccn3)c2)c1` [Example 88, 2-{1-[2-(2,5-difluorophenyl)ethyl]-1H-imidazol-4-yl}-4-[5-(trifluoromethyl)-1H-1,2,3-triazol-4-yl]pyridine], at most 100 nM; in that of `O=C(c1ccccc1)N1CCC[C@@H](n2cnc(-c3cc(-c4nn[nH]c4C(F)(F)F)ccn3)c2)C1` [Example 89, 2-{1-[(3R)-1-benzoylpiperidin-3-yl]-1H-imidazol-4-yl}-4-[5-(trifluoromethyl)-1H-1,2,3-triazol-4-yl]pyridine], at most 100 nM.
`O=C(c1ccccc1)N1CCC[C@H](n2cnc(-c3cc(-c4nn[nH]c4C(F)(F)F)ccn3)c2)C1` [Example 90, 2-{1-[(3S)-1-benzoylpiperidin-3-yl]-1H-imidazol-4-yl}-4-[5-(trifluoromethyl)-1H-1,2,3-triazol-4-yl]pyridine] yielded an IC50 of at most 100 nM.
In the case of `Cc1ccc(CCn2cnc(-c3cc(-c4nn[nH]c4C(F)(F)F)ccn3)c2)cc1` [Example 91, 2-{1-[2-(4-methylphenyl)ethyl]-1H-imidazol-4-yl}-4-[5-(trifluoromethyl)-1H-1,2,3-triazol-4-yl]pyridine] it was at most 100 nM; in that of `FC(F)(F)c1[nH]nnc1-c1ccnc(-c2cn(CCc3ccc(Cl)cc3)cn2)c1` [Example 92, 2-{1-[2-(4-chlorophenyl)ethyl]-1H-imidazol-4-yl}-4-[5-(trifluoromethyl)-1H-1,2,3-triazol-4-yl]pyridine], at most 100 nM.
In the case of `COc1ccc(CCn2cnc(-c3cc(-c4nn[nH]c4C(F)(F)F)ccn3)c2)cc1` [Example 93, 2-{1-[2-(4-methoxyphenyl)ethyl]-1H-imidazol-4-yl}-4-[5-(trifluoromethyl)-1H-1,2,3-triazol-4-yl]pyridine] it was at most 100 nM; in that of `FC(F)(F)c1ccc(CCn2cnc(-c3cc(-c4nn[nH]c4C(F)(F)F)ccn3)c2)cc1` [Example 94, 4-[5-(trifluoromethyl)-1H-1,2,3-triazol-4-yl]-2-(1-{2-[4-(trifluoromethyl)phenyl]ethyl}-1H-imidazol-4-yl)pyridine], 100 to 1000 nM.
`CC(C)(C)c1ccc(CCn2cnc(-c3cc(-c4nn[nH]c4C(F)(F)F)ccn3)c2)cc1` [Example 96, 2-{1-[2-(4-tert-butylphenyl)ethyl]-1H-imidazol-4-yl}-4-[5-(trifluoromethyl)-1H-1,2,3-triazol-4-yl]pyridine] returned an IC50 of 100 to 1000 nM.
In the case of `Cn1cnc(-c2cc(-c3nn[nH]c3C(F)(F)F)ccn2)c1-c1ccc(F)cc1` [Example 97, 2-[5-(4-fluorophenyl)-1-methyl-1H-imidazol-4-yl]-4-[5-(trifluoromethyl)-1H-1,2,3-triazol-4-yl]pyridine] it was at most 100 nM.
In the case of `FC(F)(F)c1[nH]nnc1-c1ccnc(-c2cn(CC3CCOc4ccccc43)cn2)c1` (stereo not drawn) [Example 98, 2-{1-[(3,4-dihydro-2H-1-benzopyran-4-yl)methyl]-1H-imidazol-4-yl}-4-[5-(trifluoromethyl)-1H-1,2,3-triazol-4-yl]pyridine] it was at most 100 nM.
In the case of `Fc1cccc2c1CCCC2Cn1cnc(-c2cc(-c3nn[nH]c3C(F)(F)F)ccn2)c1` (stereo not drawn) [Example 99, 2-{1-[(5-fluoro-1,2,3,4-tetrahydronaphthalen-1-yl)methyl]-1H-imidazol-4-yl}-4-[5-(trifluoromethyl)-1H-1,2,3-triazol-4-yl]pyridine], the IC50 lay within 100 to 1000 nM.
In the case of `Fc1ccc2c(c1)CCCC2Cn1cnc(-c2cc(-c3nn[nH]c3C(F)(F)F)ccn2)c1` (stereo not drawn) [Example 100, 2-{1-[(6-fluoro-1,2,3,4-tetrahydronaphthalen-1-yl)methyl]-1H-imidazol-4-yl}-4-[5-(trifluoromethyl)-1H-1,2,3-triazol-4-yl]pyridine] it was 100 to 1000 nM; in that of `Fc1ccc2c(c1)C(Cn1cnc(-c3cc(-c4nn[nH]c4C(F)(F)F)ccn3)c1)CCC2` (stereo not drawn) [Example 101, 2-{1-[(7-fluoro-1,2,3,4-tetrahydronaphthalen-1-yl)methyl]-1H-imidazol-4-yl}-4-[5-(trifluoromethyl)-1H-1,2,3-triazol-4-yl]pyridine], 100 to 1000 nM.

In general, IC50 refers to the midpoint of a concentration-inhibition curve. A higher IC50 goes with lower potency.
